Test results taken from patent US20020019344A1, “Methods of preventing allograft rejection” (priority 2000, published 2002).
Read-outs that look alike come from different tables or passages of the source.

Columns and labels:
[1] = tested on: IL-2 secretion in human T lymphocytes; test: Inhibition of PHA/PMA-induced IL-2 secretion in human T lymphocytes; type: cell-based; details: for activation of IL-2 production: 5 micromolar, preincubation 12 hours prior to activator
Method: The following test can be used to detect whether an insulin sensitizing agent is also able to inhibit IL-2 production. Isolated human T lymphocytes or a mammalian lymphocyte cell line which expresses PPARgamma is stimulated with one or a combination of PHA/PMA, TNF-alpha, interferon-gamma or some other factor that activates induction of IL-2 gene expression. Production of IL-2 is determined by measuring the concentration of IL-2 in the supernatant from cells using Endogen kits (Wolbum), as described by Yang et al.

monocyte/macrophages = details: Thieringer et al.; cited from earlier work
NF-kappaB = test: Inhibition of NF-kappaB activation, electrophoretic mobility shift assay; type: cell-based, human; details: 5 micromolar; preincubation 2 hours prior to activator
Method: The following test can be used to generically identify compounds of use in this invention based upon their ability to act as an agonist of PPAR. […] The rexinoid, LG100754 is a selective RXR/PPARgamma agonists. These compounds are tested for the ability to inhibit activity of NF-kappaB. Isolated human T lymphocytes or a mammalian cell line such as a Jurkat T cell line which expresses PPARgamma is stimulated with a concentration of one or a combination of: phytohemagglutinin/phorbol 12-myristate 13-acetate (PHA/PMA), TNF-alpha, interferon-gamma or some other factor that activates NF-kappaB. Activation of NF-kappaB is determined by electrophoretic mobility shift assay similar to that described by Rossi et al.

NFAT = test: Inhibition of NFAT activation, electrophoretic mobility shift assay; type: cell-based, human; details: 5 micromolar; preincubation 2 hours prior to activator
Method: Isolated human T lymphocytes or a mammalian cell line such as a Jurkat T cell line which expresses PPARgamma is stimulated with a concentration of one or a combination of PHA/PMA, TNF-alpha, interferon-gamma or some other factor that activates NFAT. Transcriptional activation of NFAT is determined by electrophoretic mobility shift assay similar to that described by Yang et al.

[2] = 10 uM, preincubated with drug for 24 hr, +PHA/PMA

CN(CCOc1ccc(CC2SC(=O)NC2=O)cc1)C(=O)CCCCC1CCSS1 (centres unmarked) [BP1-003]
IL-2 released [1, 2]: 37 ± 7 pg/ml supernatant | Percent Inhibition [1, 2]: 92%

Cc1oc(-c2ccccc2)nc1C(O)COc1ccc(CC2SC(=O)NC2=O)cc1 (centres unmarked) [AD-5075]
effect on TNF-alpha and lipopolysaccharide production (monocyte/macrophages): no effect

CN(CCOc1ccc(CC2SC(=O)NC2=O)cc1)c1ccccn1 (centres unmarked) [rosiglitazone]
IL-2 released ([1]; 0.1 uM, preincubated with drug for 12 hr, +PHA/PMA): 481 ± 11 c.p.m. | IL-2 released ([1]; 1.0 uM, preincubated with drug for 12 hr, +PHA/PMA): 406 ± 12 c.p.m. | IL-2 released ([1]; 10 uM, preincubated with drug for 12 hr, +PHA/PMA): 323 ± 26 c.p.m. | IL-2 released [1, 2]: 112 ± 7 pg/ml supernatant | inhibition at 0.1 µM ([1]; Homo sapiens, T-lymphocyte, 0.1 uM, preincubated with drug for 12 hr, +PHA/PMA, read-out: Percent Inhibition): 12% | inhibition at 1 µM ([1]; Homo sapiens, T-lymphocyte, 1.0 uM, preincubated with drug for 12 hr, +PHA/PMA, read-out: Percent Inhibition): 25% | inhibition at 10 µM ([1]; Homo sapiens, T-lymphocyte, 10 uM, preincubated with drug for 12 hr, +PHA/PMA, read-out: Percent Inhibition): 41% | inhibition at 10 µM ([1]; Homo sapiens, T-lymphocyte, 10 uM, preincubated with drug for 24 hr, +PHA/PMA, read-out: Percent Inhibition): 75%

CCCOc1cc2c(cc1\C(C)=C/C=C/C(C)=C/C(=O)O)C(C)(C)CCC2(C)C [LG100754]
activation of NF-kappaB (NF-kappaB): inhibits the activation of NF-kappaB | activation of NFAT (NFAT): inhibits the activation of NFAT | activation of IL-2 production [1]: inhibits the activation of IL-2 production

CCCCC[C@H](O)/C=C/[C@H]1C(=O)C=C[C@@H]1C/C=C\CCCC(=O)O [prostaglandin J2]
activation of NF-kappaB (NF-kappaB): inhibits the activation of NF-kappaB | activation of NFAT (NFAT): inhibits the activation of NFAT | activation of IL-2 production [1]: inhibits the activation of IL-2 production
